The text below walks through data of PubChem BioAssay AID850 (SRMLSC, 2007).

Test [1] in a line: concentration-response yeast growth inhibition under permissive conditions, counter-assay for yeast lifespan-shortening chemical project (AID 850).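 Note: growth read as optical density after one day of incubation.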 The settings on record: Saccharomyces cerevisiae growth inhibition, permissive control, measured here: maximum growth inhibition, stronger effect = higher value.
Test [2] has as its system Saccharomyces cerevisiae growth inhibition, permissive control. Described as above.

Calls of active or inactive are those of the source. The rule behind the calls is not given here.

As usually defined, the inhibition is the drop in the measured response relative to a control, in per cent. The term IC50 denotes the point on the concentration scale where inhibition reaches its midpoint.

With `CCOC(=O)C1=Nc2ccccc2C1=[N+]=[N-]`, the inhibition in test [1] (at 50 µM) was 99.2%. In addition, the IC50 in test [2] was 5.45 µM.

As for `Cc1ccc(/C(N)=N/OC(=O)c2ccc(Cl)cc2Cl)cc1`, the inhibition in test [1] (at 50 µM) stood at 98.8%. Further, the IC50 in test [2] is 19.8 µM.

On to `CCc1cccc(C)c1NC(=S)NCc1ccc2[nH]c(C)cc2c1`, for which the inhibition in test [1] (at 50 µM) was found to be 8.77%. In test [2], the IC50 was > 100 µM (inactive).

For the molecule `CCOC(=O)c1c(N)sc(C(O)(C(F)(F)F)C(F)(F)F)c1-c1ccc(F)cc1`, the inhibition in test [1] (at 0.098 µM) was found to be 8.89%. Moreover, the IC50 in test [2] is > 100 µM (inactive).

For the molecule `CCOC(=O)/C(=N\Nc1cccc(C(F)(F)F)c1)N(CCOC)CCOC`, the inhibition in test [1] (at 12.5 µM) was -1.36%. In test [2], the IC50 was > 100 µM (inactive).

For `CC(C)(Oc1ccc(Cl)cc1)C(=O)NC1=NN(c2ccccc2)C(=O)C1`, the inhibition in test [1] (at 50 µM) turned out to be 88.3%. Further, the IC50 in test [2] was 21.5 µM.

For `COc1cc2c(cc1OC)CN(C(=O)CSc1nnc3scc(-c4ccccc4)n13)CC2`, the inhibition in test [1] (at 0.781 µM) came out at 17.1%. For the same molecule, the IC50 in test [2] is > 100 µM (inactive).

In the case of `O=c1cnn([C@@H]2O[C@H](CO)[C@@H](O)[C@H]2O)c(=O)[nH]1`, the inhibition in test [1] (at 50 µM) is 68.7%. Further, in test [2], the half-maximal inhibitory concentration (IC50) is 16.6 µM.

For the molecule `Cc1nc2c(c(C)c1C#N)C(=O)c1ccccc1-2`, the inhibition in test [1] (at 50 µM) is 16%. For the same molecule, the IC50 in test [2] was > 100 µM (inactive).

`Cc1nc2ccccc2c2c1C(=O)N(C)C2=O`: the inhibition in test [1] (at 12.5 µM) is 20.3%. For the same molecule, the IC50 in test [2] was > 100 µM (inactive).

Consider `Cc1cc(C(=O)N/N=C/c2cccc([N+](=O)[O-])c2O)n[nH]1`, for which the inhibition in test [1] (at 6.25 µM) stood at 19.4%. The IC50 in test [2] is > 100 µM (inactive).

On to `CNC(=O)Oc1cccc(-c2cn3cc(OC(=O)NC)ccc3n2)c1`, for which the inhibition in test [1] (at 50 µM) was determined as 97.6%. Further, the IC50 in test [2] was 6.45 µM.

On to `CC(=O)N1CCN(c2ccc(OC[C@H]3CO[C@](Cn4ccnc4)(c4ccc(Cl)cc4Cl)O3)cc2)CC1`, for which, in test [1] (at 50 µM), the inhibition came out at 96%. Moreover, in test [2], the IC50 is 4.25 µM.

As for `Cc1cc(/C=N/n2cnnc2)c(C)n1-c1ccc(OCc2ccc(Cl)cc2Cl)cc1`, the inhibition in test [1] (at 25 µM) stood at 25.7%. The IC50 in test [2] was > 100 µM (inactive).

On to `O=C(/C(=N/N=C/c1ccc(O)c(O)c1O)c1ccccc1)c1ccccc1`, for which the inhibition in test [1] (at 0.781 µM) was determined as 5.74%. The IC50 in test [2] is > 100 µM (inactive).

For the molecule `Cc1ccc(C(=O)O)cc1N=Cc1cc(Br)cc(Br)c1O`, the inhibition in test [1] (at 50 µM) was determined as 97.1%. Also, the IC50 in test [2] was 6.04 µM.

For `Cc1ccccc1OCCCN1C(=O)C(=O)c2cccc(C)c21`, in test [1] (at 25 µM), the inhibition turned out to be 24.9%. Also, in test [2], the IC50 is > 100 µM (inactive).

`COc1cc(-c2nc3ccc4ccccc4c3c3c2CCC3)ccc1O`: the inhibition in test [1] (at 3.125 µM) came to 11.9%. Further, the IC50 in test [2] was > 100 µM (inactive).

Regarding `Cc1cccc(-c2nnc3sc(-c4ccccc4C)nn23)c1`, the inhibition in test [1] (at 50 µM) worked out at 29.1%. The IC50 in test [2] was > 100 µM (inactive).

Consider `O=C(CC(=O)c1cc(Cl)ccc1O)c1ccccc1`, for which the inhibition in test [1] (at 12.5 µM) came to 24.9%. Also, the IC50 in test [2] was > 100 µM (inactive).

Regarding `Oc1c(I)cc(I)c2cccnc12`, in test [1] (at 50 µM), the inhibition was 74.8%. For the same molecule, the IC50 in test [2] was 17.1 µM.

As for `C/C(=N\Nc1ccc(Cl)c(Cl)c1)c1ccc(-n2ccnc2)cc1`, in test [1] (at 50 µM), the inhibition came to 96.7%. Further, in test [2], the IC50 was 26.7 µM.

`O=C1c2ccccc2-c2nc3ccccc3nc21`: the inhibition in test [1] (at 50 µM) came to 27.3%. Moreover, the IC50 in test [2] was > 100 µM (inactive).

Turning to `Cc1ccc2nc(-c3ccc(NS(C)(=O)=O)cc3)cc(-c3ccccc3)c2c1`, in test [1] (at 50 µM), the inhibition turned out to be 22.2%. The IC50 in test [2] was > 100 µM (inactive).

Consider `CCc1ccc2c(c1)C1(NN=C(c3ccc(C)cc3)S1)C(=O)N2` (centres undefined), for which the inhibition in test [1] (at 50 µM) turned out to be 98%. Besides, the half-inhibitory concentration (IC50) in test [2] was 21.3 µM.

Consider `CCOCCCNC(=O)c1ccc(Br)cc1`, for which the inhibition in test [1] (at 1.563 µM) came to 27.6%. Moreover, the IC50 in test [2] is > 100 µM (inactive).

For `Cn1c(/C=C/c2ccc([N+](=O)[O-])o2)nc2ccccc2c1=O`, in test [1] (at 50 µM), the inhibition came to 47.5%. The IC50 in test [2] was 51.4 µM.

Regarding `CSC1=NSC2=NC(=O)/C(=C\c3coc4ccccc4c3=O)C(=N)N12`, the inhibition in test [1] (at 50 µM) is 19.2%. Also, in test [2], the IC50 is > 100 µM (inactive).

`CCCCCCCCCCCCCCCC[n+]1cccc(C(=O)N(CC)CC)c1`: the inhibition in test [1] (at 50 µM) was 101%. The concentration for half-maximal inhibition (IC50) in test [2] is 1.82 µM.

Take `O=C1c2cccc3cccc(c23)C(=O)N1c1cccnc1`: the inhibition in test [1] (at 50 µM) stood at 27.9%. Also, in test [2], the IC50 was > 100 µM (inactive).

`O=c1[nH]c(Nc2ccccc2)cc2ccccc12`: the inhibition in test [1] (at 50 µM) was 25.9%. Also, in test [2], the IC50 was > 100 µM (inactive).

Take `Nc1c(C(=O)NCCc2ccccc2)c2nc3ccccc3nc2n1CCN1CCOCC1`: the inhibition in test [1] (at 50 µM) came out at 99.8%. Also, the IC50 in test [2] was 42.4 µM.
